Holding throughout (type): cell-based
One assay concerns the target T1, human PPAR γ 2 (Homo sapiens, UniProt P37231).
T1 construct: expressed in transfected cells; host or cells: human osteosarcoma MG63, transiently co-transfected with pSG5-hPPARg and the reporter pGV-P2-PPRE
T1 sequence (P37231 1-505): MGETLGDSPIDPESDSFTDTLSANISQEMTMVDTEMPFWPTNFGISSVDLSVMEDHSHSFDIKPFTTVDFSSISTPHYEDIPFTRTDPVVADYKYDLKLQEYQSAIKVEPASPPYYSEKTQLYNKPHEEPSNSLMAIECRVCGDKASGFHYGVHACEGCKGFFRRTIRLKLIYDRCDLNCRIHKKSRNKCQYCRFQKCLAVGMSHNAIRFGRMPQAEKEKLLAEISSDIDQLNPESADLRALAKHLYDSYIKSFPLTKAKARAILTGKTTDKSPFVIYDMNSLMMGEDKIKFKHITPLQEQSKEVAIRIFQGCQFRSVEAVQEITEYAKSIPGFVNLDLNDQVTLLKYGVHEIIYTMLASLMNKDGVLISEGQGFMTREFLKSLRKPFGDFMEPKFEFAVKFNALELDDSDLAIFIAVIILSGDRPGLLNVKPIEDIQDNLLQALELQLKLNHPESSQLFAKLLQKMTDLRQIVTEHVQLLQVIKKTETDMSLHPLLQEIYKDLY
The experiment in a line: Inhibitory activity against PPAR γ transcription in the presence of agonist compound A, luciferase reporter. The following applies: in the presence of 10 nM compound A (agonist); MG63 cells transfected with pSG5-hPPARg and pGV-P2-PPRE; 24 hr. The source says: The primers of the polymerase chain reaction (hereinafter “PCR”) were designed according to the gene sequence of human PPAR γ 2 (GenBANK accession No. D83233). […] For this, 2 kinds of polynucleotides shown in the sequence numbers 1 and 2 in the sequence table described below (hereinafter “S1” and “AS1”, respectively) were used as PCR primers.
In order to determine transcriptional activity via PPAR γ, 2 kinds of polynucleotides represented in sequence numbers 3 and 4 in the sequence table described below (hereinafter “S2” and “AS2”, respectively) were used for construction of the reporter plasmid having PPAR responsive element. The DNA fragment inserted was designed based on the gene sequence in the promoter region of rat acylCo-A oxidase (J. D. Tugwood, EMBO J., 11 (2), pp433-439 (1992)). For insertion of the DNA fragment into the reporter plasmid pGV-P2 (TOYO INK MFG CO., LTD), a NheI site and an XhoI site were added to the S2 and AS2, respectively.
Using cDNA library (Clontech) derived from human adipose tissue as a template, DNA oligomers S1 and AS1 that were synthesized in the procedure 1 as primers and Ex-Taq™ (TAKARA BIO INC.) as a thermostable DNA polymerase-PCR was carried out. […] Each cycle consisted of incubation at 94° C. for 1 min for denaturation of the template, then at 55° C. for 30 sec for annealing of DNA oligomers the PCR primer, and then at 72° C. for 30 sec for extension of the chain. The obtained DNA fragments with approximately 1500 base pairs were digested at the Bgl II sites and were inserted into BamHI sites of pSG5. Thus a human PPAR γ expression plasmid named pSG5-hPPAR g was obtained.
Vector pGV-P2 digestion products was prepared by digestion using the restriction enzymes, NheI and XhoI, and purified by 1.0% agarose-gel electrophoresis. The DNA oligomers, S2 and AS2 obtained in Procedure 2, were mixed together and were incubated in a hot bath at 94° C. for 1 min. After the annealing was partially broken, they were further incubated at 25° C. for 1 hr. Thus double-stranded DNA with annealing of S2 and AS2 was formed. Then, the terminus of the double-stranded DNA with annealing of S2 and AS2 was phosphorylated with DNA polynucleotide kinase (TOYOBO CO., LTD). After that, it was ligated to the pGV-P2 digestion products which were prepared previously using the NheI site and XhoI site. Thus the reporter plasmid pGV-P2-PPRE was obtained.
Using the plasmid obtained by the procedures 3 and 4, transformation of Escherichia coli HB-101 strain was carried out by conventional methods. HB-101 strain having the plasmid was incubated in L-broth medium (containing 10 g of trypton (Difco), 5 g of yeast extract (Difco), 5 g of sodium chloride in 1 L of aqueous solution) containing 100 μg/ml of ampicillin at 37° C. for 17 hrs. Then, each plasmid was purified by the alkaline-SDS method and employed for the gene transfection to mammalian cells. After mixing the pSG5-hPPARg, PGV-P2-PPRE and LipofectAMINE reagent (GIBCO BRL), the human osteosarcoma MG63 was transiently transfected. Then the cells were recovered. The recovered cells were plated on a 96-well plate so as to be 30,000 cells/well and cultured in a CO2 incubator (NAPCO) at 37° C. for 24 hr under the condition of 5% CO2, 95%-RH.
Ten (10) nM of the following compound A (although compound A is described here as a representative compound, the compound is not limited to compound A, if the compound exerts a PPAR r agonistic activity) and various concentrations of the test compound were added to culturing medium of the cells prepared in the Procedure 5.
(Reporter assays use an easily measured gene product as a stand-in for the process of interest.)

Another assay relates to Rat white adipocytes. The experiment in a line: Inhibition of the differentiation of adipocytes (Oil Red O). Particulars: Rattus norvegicus, Adipocyte, 120 h, 100 nM test compound; 5 days; Oil Red O ABS550; control = 100%, blank = 0%; Table 3; read-out: Rate of Differentiation (%). The gist of the method:
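Rat white preadipocytes, 5,000 cells/well, given differentiation medium with compound at 100 nM final (0.1% DMSO) for 5 days at 37 °C. Lipid stained with Oil Red O, eluted in DMSO, read at 550 nm; differentiation % relative to DMSO control (100%) and blank (0%).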

The subject of assay [1] is Mouse preadipocyte strain 3T3-L1. The experiment in a line: Inhibition of differentiation as an indication of acetic acid uptake. The following applies: Mus musculus, 3T3-L1, 0.1 μM test substance, control (0.01% dimethylsulfoxide) = 100%, read-out: Rate of Uptake (%) of [2-14C] acetic acid. On the procedure:
As the basal medium, Dulbecco's modified Eagle's (DEM) medium (NISSUI PHARMACEUTICAL CO., LTD) was used. […] All culturing in the present Test Example was carried out in a CO2 incubator at 37° C. and 10% CO2 concentration.
The successively cultured 3T3-L1 cells were inoculated in a Biocoat Collagen I 96-well white/clear plate (Becton Dickinson and Co.) at a concentration of 4,900 cells/well, and were cultured in the basal medium containing added 10% (v/v) inactivated bovine fetal serum (FBS) for 10 days.
The medium was replaced with a differentiation-inducing medium in which inactivated FBS (final concentration: 5%), insulin (Sigma-Aldrich Japan K. K., final concentration: 10 μg/mL), isobutyl methyl xanthine (Aldrich K. K., final concentration: 0.5 mM) and dexamethazone (final concentration: 1 μM) were added so as to be at the final concentrations indicated in the parentheses. The cells were divided in the following 2 groups and were cultured for 4 days; 1) in the presence of 0.01% (v/v) dimethylsulfoxide, and 2) in the presence of 0.01% (v/v) dimethylsulfoxide in which was dissolved 1 mM of the test substance (final concentration of 0.1 μM). Then, the medium was further replaced with a maintenance medium in which inactivated […] and insulin were added to the base medium so as to be at final concentrations of 5% and 100 ng/mL, respectively, and the cells were cultured for 2 days.
The inhibitory activity of the test compound against cell differentiation was assayed by using uptake of [2-^14C] acetic acid into the cultured cells as an indicator. […] Then the cells were further incubated with the newly prepared medium for 1 hr. After washing the well with PBS (−), the cells were dried. To these wells, 100 μL/well of a scintillation cocktail (Hewlett-Packard Co., MICROSCINT-20 PACKARD) were added and their radioactivities were determined with a Packard TopCont microplate Scintillation Counter (Hewlett-Packard Co., PACKARD) and the uptake level of [2-^14C] acetic acid into the cultured cell was calculated.
On the basis of the calculated uptake level of [2-^14C] acetic acid into the cultured cells, the relative uptake level of [2-^14C] acetic acid in the group treated with the test compound was calculated against the uptake level of [2-^14C] acetic acid in the presence of 0.01% (v/v) dimethylsulfoxide solution described in 1) (100%).
Value=Uptake Level (cpm) of [2-^14C] Acetic Acid in the Presence of the Test Substance
Control=Uptake Level (cpm) of [2-^14C] Acetic Acid in the Control Group (0.01% dimethylsulfoxide)
Uptake Rate (%) of [2-^14C] Acetic Acid=100×[Value]/[Control]

Structures can show the parent of a compound that is named as a salt.

In the case of `O=C(Nc1ccc(CCNC(=S)Nc2ccccc2)cc1)c1cc([N+](=O)[O-])ccc1Cl` [Example 269, N-[4-(2-Phenylaminothiocarbonylaminoethyl)phenyl]-(2-chloro-5-nitrophenyl)carboxamide], on human PPAR γ 2, the 50% inhibitory concentration (IC50) – broadly, the concentration that inhibits the measured activity by half – came out at 30 nM. Also, in the assay with Rat white adipocytes, the activity at 0.1 µM stood at 52.9%. For the compound `O=C(Nc1ccc(C(=O)N2CCOCC2)cc1)c1cc([N+](=O)[O-])ccc1Cl` [Example 158, N-[4-(Morpholin-4-ylcarbonyl)phenyl]-(2-chloro-5-nitrophenyl)carboxamide], the IC50 at human PPAR γ 2 was 82 nM. For the compound `Cc1nccc(-c2cccc(NC(=O)c3cc([N+](=O)[O-])ccc3Cl)c2)n1` [Example 112, N-[3-(2-Methylpyrimidin-4-yl)phenyl]-(2-chloro-5-nitrophenyl)carboxamide], the IC50 at human PPAR γ 2 was 14 nM. In addition, the activity at 0.1 µM in assay [1] is 82.3%.

With `O=C(Nc1ccc(-c2ccc(NC(=S)Nc3cccnc3)cc2)cc1)c1cc([N+](=O)[O-])ccc1Cl` [Example 256, N-[4-[4-[(Pyridin-3-yl)aminothiocarbonylamino]phenyl]phenyl)-(2-chloro-5-nitrophenyl)carboxamide], on human PPAR γ 2, the IC50 turned out to be 12 nM. For the same compound, the activity at 0.1 µM with Rat white adipocytes was determined as 38.2%. As to `O=C(NCCc1ccc(NC(=O)c2cc([N+](=O)[O-])ccc2Cl)cc1)Nc1ccccc1` [Example 268, N-[4-(2-Phenylaminocarbonylaminoethyl)phenyl]-(2-chloro-5-nitrophenyl)carboxamide], the IC50 on human PPAR γ 2 came out at 25 nM. Also, the activity at 0.1 µM in the assay with Rat white adipocytes is 54.8%. For `O=C(Nc1ccc(N2CCN(C(=O)c3cccnc3)CC2)cc1)c1cc([N+](=O)[O-])ccc1Cl` [Example 227, N-[4-[4-(Pyridin-3-ylcarbonyl)piperazin-1-yl]phenyl]-2-(chloro-5-nitrophenyl)carboxamide], in that order: 81 nM and 39.7%. The like results for `CC(O)c1ccc(NC(=O)c2cc([N+](=O)[O-])ccc2Cl)cc1` (stereo not shown) [Example 238, N-[4-(1-Hydroxyethyl)phenyl]-(2-chloro-5-nitrophenyl)carboxamide] were, in that order, 9.3 nM and 64%. Turning to `CCS(=O)(=O)Nc1ccc(NC(=O)c2cc([N+](=O)[O-])ccc2Cl)cc1` [Example 129, N-(4-Ethanesulfonylaminophenyl)-(2-chloro-5-nitrophenyl)carboxamide], at human PPAR γ 2, the IC50 stood at 26 nM.

Turning to `CCCCCCCCN(CCCCC)c1ccc(-c2ccc(NC(=O)c3cc([N+](=O)[O-])ccc3Cl)cc2)cc1` [Example 221, N-[4-[4-(N-Octyl-N-pentylamino)phenyl]phenyl]-(2-chloro-5-nitrophenyl)carboxamide mono-hydrochloride], the half-maximal inhibitory concentration (IC50) at human PPAR γ 2 amounted to 34 nM. Further, the activity at 0.1 µM with Rat white adipocytes is 40.2%.

For the origin of these results see patent US20030134859A1 (SANKYO COMPANY, LIMITED, priority 2000, published 2003).
